In ChEMBL document CHEMBL4043153, “Lead selection of antiparasitic compounds from a focused library of benzenesulfonyl derivatives of heterocycles” (Bioorg Med Chem Lett, 2017):

Columns and labels:
Type in all cases: functional
[1] = tested on: Leishmania donovani; assay: Antiparasitic activity against Leishmania donovani MHOM-ET-67/L82 axenic amastigotes assessed as growth inhibition at 0.8 ug/ml after 72 hrs by resazurin dye-based fluorometric analysis relative to control; settings: MHOM-ET-67/L82, 72 h, read-out: GI
[2] = tested on: Leishmania donovani; assay: Antiparasitic activity against Leishmania donovani MHOM-ET-67/L82 axenic amastigotes assessed as growth inhibition at 4.8 ug/ml after 72 hrs by resazurin dye-based fluorometric analysis relative to control; settings: MHOM-ET-67/L82, 72 h, read-out: GI
[3] = tested on: Trypanosoma cruzi; assay: Antiparasitic activity against Trypanosoma cruzi Tulahuen C4 intracellular amastigotes infected in rat L6 cells assessed as growth inhibition at 0.8 ug/ml after 96 hrs by CPRG/Nonidet reagent based photometric analysis relative to control; settings: Tulahuen C4, L6, 96 h, read-out: GI
[4] = tested on: Trypanosoma cruzi; assay: Antiparasitic activity against Trypanosoma cruzi Tulahuen C4 intracellular amastigotes infected in rat L6 cells assessed as growth inhibition at 4.8 ug/ml after 96 hrs by CPRG/Nonidet reagent based photometric analysis relative to control; settings: Tulahuen C4, L6, 96 h, read-out: GI
[5] = tested on: Plasmodium falciparum; assay: (§1) Antiparasitic activity against intraerythrocytic form of chloroquine/pyrimethamine-resistant Plasmodium falciparum K1 infected in human RBC assessed as growth inhibition at 0.8 ug/ml preincubated for 48 hrs followed by [3H]-hypoxanthine addition measured after 24 hrs by liquid scintillation counting analysis relative to control; settings: read-out: GI
[6] = tested on: Plasmodium falciparum; assay: as §1, with “4.8” for “0.8”; settings: read-out: GI
[7] = tested on: Trypanosoma brucei rhodesiense; assay: Antiparasitic activity against Trypanosoma brucei rhodesiense STIB 900 trypomastigote bloodstream form assessed as growth inhibition at 0.8 ug/ml after 72 hrs by resazurin dye-based fluorometric analysis relative to control; settings: STIB 900, 72 h, read-out: GI
[8] = tested on: Trypanosoma brucei rhodesiense; assay: Antiparasitic activity against Trypanosoma brucei rhodesiense STIB 900 trypomastigote bloodstream form assessed as growth inhibition at 4.8 ug/ml after 72 hrs by resazurin dye-based fluorometric analysis relative to control; settings: STIB 900, 72 h, read-out: GI

CC1CCc2ccccc2N1S(=O)(=O)c1ccccc1[N+](=O)[O-] (stereo unspecified)
inhibition of growth at 0.8 µg/mL [1]: 22.4%
inhibition of growth at 4.8 µg/mL [2]: 66.3%
inhibition of growth at 0.8 µg/mL [3]: 7.6%
inhibition of growth at 4.8 µg/mL [4]: 43.7%
inhibition of growth at 0.8 µg/mL [5]: 8.8%
inhibition of growth at 4.8 µg/mL [6]: 67.5%
inhibition of growth at 0.8 µg/mL [7]: 0.4%
inhibition of growth at 4.8 µg/mL [8]: 2.7%

O=[N+]([O-])c1ccccc1S(=O)(=O)N1CCCc2ccccc21
inhibition of growth at 0.8 µg/mL [1]: 10.1%
inhibition of growth at 4.8 µg/mL [2]: 50.1%
inhibition of growth at 0.8 µg/mL [3]: 0%
inhibition of growth at 4.8 µg/mL [4]: 26.9%
inhibition of growth at 0.8 µg/mL [5]: 3.5%
inhibition of growth at 4.8 µg/mL [6]: 38%
inhibition of growth at 0.8 µg/mL [7]: 6.2%
inhibition of growth at 4.8 µg/mL [8]: 17.1%

CC(C)(C)c1ccc(S(=O)(=O)n2ccc3ccccc32)cc1
inhibition of growth at 0.8 µg/mL [1]: 27.3%
inhibition of growth at 4.8 µg/mL [2]: 92.2%
inhibition of growth at 0.8 µg/mL [3]: 0%
inhibition of growth at 4.8 µg/mL [4]: 0%
inhibition of growth at 0.8 µg/mL [5]: 13.9%
inhibition of growth at 4.8 µg/mL [6]: 92.3%
inhibition of growth at 0.8 µg/mL [7]: 0%
inhibition of growth at 4.8 µg/mL [8]: 0%

CC(=O)c1ccc(S(=O)(=O)N2CCc3ccccc3C2)cc1
inhibition of growth at 0.8 µg/mL [1]: 20.1%
inhibition of growth at 4.8 µg/mL [2]: 46.1%
inhibition of growth at 0.8 µg/mL [3]: 0%
inhibition of growth at 4.8 µg/mL [4]: 13.4%
inhibition of growth at 0.8 µg/mL [5]: 0.3%
inhibition of growth at 4.8 µg/mL [6]: 9.7%
inhibition of growth at 0.8 µg/mL [7]: 0%
inhibition of growth at 4.8 µg/mL [8]: 0%

CC(C)(C)c1ccc(S(=O)(=O)N2CCCc3ccccc32)cc1
inhibition of growth at 0.8 µg/mL [1]: 49.8%
inhibition of growth at 4.8 µg/mL [2]: 99.1%
inhibition of growth at 0.8 µg/mL [3]: 0%
inhibition of growth at 4.8 µg/mL [4]: 55.6%
inhibition of growth at 0.8 µg/mL [5]: 23.5%
inhibition of growth at 4.8 µg/mL [6]: 91.6%
inhibition of growth at 0.8 µg/mL [7]: 6.7%
inhibition of growth at 4.8 µg/mL [8]: 5.5%

Cc1ccc(S(=O)(=O)N2c3ccccc3CC2C)cc1 (stereo unspecified)
inhibition of growth at 0.8 µg/mL [1]: 9.4%
inhibition of growth at 4.8 µg/mL [2]: 5.3%
inhibition of growth at 0.8 µg/mL [3]: 0%
inhibition of growth at 4.8 µg/mL [4]: 93.4%
inhibition of growth at 0.8 µg/mL [5]: 7.7%
inhibition of growth at 4.8 µg/mL [6]: 53.1%
inhibition of growth at 0.8 µg/mL [7]: 3.5%
inhibition of growth at 4.8 µg/mL [8]: 0%

O=S(=O)(c1ccc(C(F)(F)F)cc1)N1CCc2ccccc21
inhibition of growth at 0.8 µg/mL [1]: 12.6%
inhibition of growth at 4.8 µg/mL [2]: 68.8%
inhibition of growth at 0.8 µg/mL [3]: 3.4%
inhibition of growth at 4.8 µg/mL [4]: 10.8%
inhibition of growth at 0.8 µg/mL [5]: 0%
inhibition of growth at 4.8 µg/mL [6]: 59.8%
inhibition of growth at 0.8 µg/mL [7]: 2.2%
inhibition of growth at 4.8 µg/mL [8]: 0%

CC(=O)c1ccc(S(=O)(=O)N2c3ccccc3CC2C)cc1 (stereo unspecified)
inhibition of growth at 0.8 µg/mL [1]: 0%
inhibition of growth at 4.8 µg/mL [2]: 26.8%
inhibition of growth at 0.8 µg/mL [3]: 0%
inhibition of growth at 4.8 µg/mL [4]: 23.7%
inhibition of growth at 0.8 µg/mL [5]: 7.3%
inhibition of growth at 4.8 µg/mL [6]: 46.3%
inhibition of growth at 0.8 µg/mL [7]: 0%
inhibition of growth at 4.8 µg/mL [8]: 0.4%

Nc1nc(N)nc(Nc2ccc([As]3SCC(CO)S3)cc2)n1 (stereo unspecified) [MELARSOPROL]
inhibition of growth at 0.8 µg/mL [7]: 44.4%
inhibition of growth at 4.8 µg/mL [8]: 98.3%

O=S(=O)(c1ccc(C(F)(F)F)cc1)n1ccc2ccccc21
inhibition of growth at 0.8 µg/mL [1]: 15.9%
inhibition of growth at 4.8 µg/mL [2]: 52.8%
inhibition of growth at 0.8 µg/mL [3]: 0%
inhibition of growth at 4.8 µg/mL [4]: 0%
inhibition of growth at 0.8 µg/mL [5]: 4.3%
inhibition of growth at 4.8 µg/mL [6]: 53.2%
inhibition of growth at 0.8 µg/mL [7]: 1.4%
inhibition of growth at 4.8 µg/mL [8]: 0%

CC(C)(C)c1ccc(S(=O)(=O)n2nnc3ccccc32)cc1
inhibition of growth at 0.8 µg/mL [1]: 13.3%
inhibition of growth at 4.8 µg/mL [2]: 42.8%
inhibition of growth at 0.8 µg/mL [3]: 8.5%
inhibition of growth at 4.8 µg/mL [4]: 7.4%
inhibition of growth at 0.8 µg/mL [5]: 0%
inhibition of growth at 4.8 µg/mL [6]: 0%
inhibition of growth at 0.8 µg/mL [7]: 8.8%
inhibition of growth at 4.8 µg/mL [8]: 0%

O=S(=O)(c1cccc(C(F)(F)F)c1)n1ccc2ccccc21
inhibition of growth at 0.8 µg/mL [1]: 11.7%
inhibition of growth at 4.8 µg/mL [2]: 45.7%
inhibition of growth at 0.8 µg/mL [3]: 0%
inhibition of growth at 4.8 µg/mL [4]: 3.3%
inhibition of growth at 0.8 µg/mL [5]: 5%
inhibition of growth at 4.8 µg/mL [6]: 61.1%
inhibition of growth at 0.8 µg/mL [7]: 0%
inhibition of growth at 4.8 µg/mL [8]: 0%

CC(C)(C)c1ccc(S(=O)(=O)N2CCc3ccccc32)cc1
inhibition of growth at 0.8 µg/mL [1]: 49.4%
inhibition of growth at 4.8 µg/mL [2]: 100%
inhibition of growth at 0.8 µg/mL [3]: 5.2%
inhibition of growth at 4.8 µg/mL [4]: 54.1%
inhibition of growth at 0.8 µg/mL [5]: 29.5%
inhibition of growth at 4.8 µg/mL [6]: 99.1%
inhibition of growth at 0.8 µg/mL [7]: 1.9%
inhibition of growth at 4.8 µg/mL [8]: 5.8%

Cc1cc(C)c(C)c(S(=O)(=O)n2nnc3ccccc32)c1C
inhibition of growth at 0.8 µg/mL [1]: 28.4%
inhibition of growth at 4.8 µg/mL [2]: 45.6%
inhibition of growth at 0.8 µg/mL [3]: 0%
inhibition of growth at 4.8 µg/mL [4]: 2.9%
inhibition of growth at 0.8 µg/mL [5]: 0%
inhibition of growth at 4.8 µg/mL [6]: 0.1%
inhibition of growth at 0.8 µg/mL [7]: 0.7%
inhibition of growth at 4.8 µg/mL [8]: 4.7%
